Results on 21 compounds are retold here after patent publication US20050107423A1, “Quinolone antibacterial agents” (priority 2003, published 2005).

Values after ≈ are worked out from the molar mass of the structure shown.

Experiment in all cases: Antibacterial assay, microtitration MIC (Test A)
Type in all cases: cell-based

Assay [1] has as its system M. catarrhalis BC-3531. The settings on record: Moraxella catarrhalis, BC3531, Gram Negative Bacteria; strain BC-3531; read-out: Minimum Inhibitory Concentrations M. catarrhalis BC-3531. The method, then:
(§1) The compounds of the present invention were tested against an assortment of Gram-negative and Gram-positive organisms using standard microtitration techniques (Cohen et. al., Antimicrob., 1985;28:766; Heifetz, et. al., Antimicrob., 1974;6:124). The results of the evaluation are shown in Tables 1A and B, wherein “-” means no data.

Assay [2] deals with E. coli EC-2549. The settings on record: Escherichia coli, EC2549, Gram Negative Bacteria; strain EC-2549; read-out: Minimum Inhibitory Concentrations E. coli EC-2549. As for the experimental part: as §1
In assay [3] the test system is H. influenzae HI-3542. The settings on record: Haemophilus influenzae, HI3542, Gram Negative Bacteria; strain HI-3542; read-out: Minimum Inhibitory Concentrations H. influenzae HI-3542. The method, then: as §1

`COc1c(N2CCC(C)(C(O)CC(F)(F)F)C2)c(F)cc2c(=O)c(C(=O)O)cn(C3CC3)c12` (stereo not drawn) [drawing 374]: the MIC was 0.03 mg/L (≈ 0.0635 µM) in assay [1], 0.125 mg/L (≈ 0.265 µM) in assay [2] and 0.03 mg/L (≈ 0.0635 µM) in assay [3].

Turning to `COc1c(N2CCC(CO)(CO)C2)c(F)cc2c(=O)c(C(=O)O)cn(C3CC3)c12` [drawing 375], the MIC is 0.0125 mg/L (≈ 0.0308 µM) in assay [1], 0.5 mg/L (≈ 1.23 µM) in assay [2] and 0.15 mg/L (≈ 0.369 µM) in assay [3].

`O=C(O)c1cn(-c2ccc(F)cc2F)c2nc(N3C[C@@H](CO)[C@@H](CO)C3)c(F)cc2c1=O` [drawing 379]: the values for the MIC in assay [1], in assay [2] and in assay [3] were 0.25 mg/L (≈ 0.556 µM), 0.5 mg/L (≈ 1.11 µM) and 0.03 mg/L (≈ 0.0668 µM), respectively.

For `Nc1nc(-n2cc(C(=O)O)c(=O)c3cc(F)c(N4C[C@@H](O)[C@@H](O)C4)nc32)c(F)cc1F` [drawing 380], the MIC came to 0.125 mg/L (≈ 0.286 µM) in assay [1], 0.25 mg/L (≈ 0.572 µM) in assay [2] and 0.008 mg/L (≈ 0.0183 µM) in assay [3].

`COc1c(N2C[C@@H](CO)[C@@H](CO)C2)c(F)c(N)c2c(=O)c(C(=O)O)cn(C3CC3)c12` [drawing 381]: the figures for the MIC in assay [1], in assay [2] and in assay [3] were 0.125 mg/L (≈ 0.297 µM), 0.25 mg/L (≈ 0.593 µM) and 0.03 mg/L (≈ 0.0712 µM), respectively.

Consider `O=C(O)c1cn(C2CC2)c2c(Cl)c(N3C[C@@H](CO)[C@@H](CO)C3)c(F)cc2c1=O` [drawing 382], for which the results for the MIC in assay [1], in assay [2] and in assay [3] were 0.03 mg/L (≈ 0.073 µM), 0.06 mg/L (≈ 0.146 µM) and 0.004 mg/L (≈ 0.00974 µM), respectively.

For the compound `Nc1nc(-n2cc(C(=O)O)c(=O)c3cc(F)c(N4C[C@@H](CO)[C@@H](CO)C4)c(Cl)c32)c(F)cc1F` [drawing 383], the MIC was 0.25 mg/L (≈ 0.501 µM) in assay [1], 0.5 mg/L (≈ 1 µM) in assay [2] and 0.008 mg/L (≈ 0.016 µM) in assay [3].

For `COc1c(N2C[C@@H](CO)[C@@H](CO)C2)c(F)cc2c(=O)c(C(=O)O)cn(C3CC3)c12` [drawing 384], the MIC in assay [1] turned out to be 0.015 mg/L (≈ 0.0369 µM); in assay [2] it was 0.125 mg/L (≈ 0.308 µM); in assay [3], 0.004 mg/L (≈ 0.00984 µM).

Take `COc1c(N2C[C@H](CO)[C@@H](CO)C2)c(F)cc2c(=O)c(C(=O)O)cn(C3CC3)c12` [drawing 385]: the results for the MIC in assay [1], in assay [2] and in assay [3] were 0.06 mg/L (≈ 0.148 µM), 0.25 mg/L (≈ 0.615 µM) and 0.008 mg/L (≈ 0.0197 µM), respectively.

In the case of `Cc1c(N2C[C@@H](CO)[C@@H](CO)C2)c(F)cc2c(=O)c(C(=O)O)cn(C3CC3)c12` [drawing 386], the MIC in assay [1] was determined as 0.015 mg/L (≈ 0.0384 µM); in assay [2], 0.06 mg/L (≈ 0.154 µM); in assay [3], 0.001 mg/L (≈ 0.00256 µM).

As to `COC[C@H]1CN(c2c(F)cc3c(=O)c(C(=O)O)cn(C4CC4)c3c2C)C[C@H]1CO` [drawing 387], the MIC in assay [1] was determined as 0.015 mg/L (≈ 0.0371 µM); in assay [2], 0.06 mg/L (≈ 0.148 µM); in assay [3], 0.008 mg/L (≈ 0.0198 µM).

Regarding `COC[C@@H]1CN(c2c(F)cc3c(=O)c(C(=O)O)cn(C4CC4)c3c2C)C[C@@H]1COC` [drawing 388], the MIC in assay [1] amounted to 0.125 mg/L (≈ 0.299 µM); in assay [2], 2 mg/L (≈ 4.78 µM); in assay [3], 0.25 mg/L (≈ 0.597 µM).

As to `COC[C@@H]1CN(c2c(F)cc3c(=O)c(C(=O)O)cn(C4CC4)c3c2C)C[C@@H]1CO` [drawing 389], the MIC in assay [1] turned out to be 0.015 mg/L (≈ 0.0371 µM); in assay [2], 0.06 mg/L (≈ 0.148 µM); in assay [3], 0.008 mg/L (≈ 0.0198 µM).

On to `CCOC[C@@H]1CN(c2c(F)cc3c(=O)c(C(=O)O)cn(C4CC4)c3c2C)C[C@@H]1CO` [drawing 390], for which the MIC in assay [1] was 0.03 mg/L (≈ 0.0717 µM); in assay [2], 0.125 mg/L (≈ 0.299 µM); in assay [3], 0.03 mg/L (≈ 0.0717 µM).

Take `CCCOC[C@@H]1CN(c2c(F)cc3c(=O)c(C(=O)O)cn(C4CC4)c3c2C)C[C@@H]1CO` [drawing 391]: the MIC was 0.03 mg/L (≈ 0.0694 µM) in assay [1], 0.25 mg/L (≈ 0.578 µM) in assay [2] and 0.06 mg/L (≈ 0.139 µM) in assay [3].

For `CC(=O)OC[C@@H]1CN(c2c(F)cc3c(=O)c(C(=O)O)cn(C4CC4)c3c2C)C[C@@H]1COC(C)=O` [drawing 392], the MIC in assay [1] was found to be 0.06 mg/L (≈ 0.126 µM); in assay [2], 0.5 mg/L (≈ 1.05 µM); in assay [3], 0.125 mg/L (≈ 0.263 µM).

For the compound `CCC(=O)OC[C@@H]1CN(c2c(F)cc3c(=O)c(C(=O)O)cn(C4CC4)c3c2C)C[C@@H]1COC(=O)CC` [drawing 393], the MIC in assay [1] stood at 0.03 mg/L (≈ 0.0597 µM); in assay [2], 1 mg/L (≈ 1.99 µM); in assay [3], 0.5 mg/L (≈ 0.995 µM).

As for `Cc1c(N2C[C@@H](COC(=O)C(C)C)[C@@H](COC(=O)C(C)C)C2)c(F)cc2c(=O)c(C(=O)O)cn(C3CC3)c12` [drawing 394], the figures for the MIC in assay [1], in assay [2] and in assay [3] were 2 mg/L (≈ 3.77 µM), 8 mg/L (≈ 15.1 µM) and 2 mg/L (≈ 3.77 µM), respectively.

Consider `Cc1c(N2C[C@@H](CCO)[C@@H](CCO)C2)c(F)cc2c(=O)c(C(=O)O)cn(C3CC3)c12` [drawing 395], for which the MIC in assay [1] is 0.06 mg/L (≈ 0.143 µM); in assay [2] it was 0.125 mg/L (≈ 0.299 µM); in assay [3] it was 0.015 mg/L (≈ 0.0358 µM).

Consider `COc1c(N2C[C@@H](CCO)[C@@H](CCO)C2)c(F)cc2c(=O)c(C(=O)O)cn(C3CC3)c12` [drawing 396], for which the MIC in assay [1] was determined as 0.125 mg/L (≈ 0.288 µM); in assay [2], 1 mg/L (≈ 2.3 µM); in assay [3], 0.06 mg/L (≈ 0.138 µM).

Consider `O=C(O)c1cn(C2CC2)c2c(OC(F)F)c(N3C[C@@H](CCO)[C@@H](CCO)C3)c(F)cc2c1=O` [drawing 397], for which the MIC in assay [1] turned out to be 0.125 mg/L (≈ 0.266 µM); in assay [2] it was 1 mg/L (≈ 2.13 µM); in assay [3], 0.06 mg/L (≈ 0.128 µM).
